# Assay results as given in US6602687B1, “DNA encoding human ciliary neurotrophic factor and method for producing the protein encoded thereby” (Regeneron Pharmaceuticals, Inc., priority 1989, dated 2003).
# Key:
# hippocampal neurons = test: Glutamate-induced toxicity in hippocampal cultures (MTT assay); format: cell-based, rat; details: glutamate 1 mM for 15 minutes, MTT after 20 h
# Procedure: FIG. 38. Protective effect of CNTF on glutamate-induced toxicity in hippocampal cultures. […] Glutamate at various concentations (100-1000 uM) was added for 15 minutes, after which the cells were cultured in the absence of glutamate or CNTF for 20 h. Survival of cells at the end of the culture period was assessed by MTT assay based on the conversion of MTT (3-(4,5-dimethylthiazol-2-yl)-2,5-diphenyl tetrazolium bromide) to a purple product by vital cells. MTT dye was added to a final concentration of 0.5 mg/ml. Dyes taken up by live cells were solubilized by the addition of 0.08N HCI in isopropranol 5 hours later, and O.D. (570-650 nm) was measured.
# The effect of CNTF on GABAergic neurons was dependent on the density at which the cells were plated. […] This may be due to an elevated level of neurotrophic factors in high density cultures. […] We have assessed the neurotoxic effects of various concentrations of glutamate (10-1000 μM) by means of a calorimetric MTT assay, as shown in FIG. 38. At a concentration of 1 mM, glutamate reduced cell survival to approximately 10%. In the presence of CNTF ([…]), cell survival following exposure to glutamate was enhanced.
# [1] = test system: chick embryonic spinal motorneurons; test: Survival of chick embryonic spinal motorneurons in culture; format: cell-based; parameters: key to Survival: −: not significantly different from control (survival: 8.3 ± 3.8%, mean ± SD, n = 18); ±: about 15-20% (statistically significant from each blank control, p < 0.01); + +: about 35-55%; + ++: about 55-75%; details: for highest survival effect of the concentration-response curve: CNTF = recombinant rat; for Survival / Motoneuron survival (%): after 3 days in culture; for Survival: one concentration per molecule, Table VI, CNTF rat, rec.; for Motoneuron survival (%): mean ± SEM (n = 4), IGF-I 1 μg/ml, Basic FGF 30 ng/ml, CNTF 1.5 ng/ml; for survival effect on motoneurons: supramaximal concentrations, NT-3 produced by transfected Cos-cells
# Procedure: Motorneuron columns were dissected under a stereomicroscope from the lumbar part of the spinal cord of chick embryos on the 6th day of embryonic development and stored in cold calcium and magnesium-free Hanks balanced salt solution supplemented with glucose (4 g/l) (HBSS). The tissues were washed with HBSS and treated with 0.03% trypsin in HBSS at 37° C. for 20 min with gentle shaking, rinsed with cold HBSS and triturated mildly in 3 steps of 8-passage agitation in 1 ml of cold 0.1% soybean trypsin inhibitor (Sigma) in HBSS through a fire-polished siliconized Pasteur pipette. Each supernatant cell suspension was filtered through 50 μm-Nylon mesh, pooled and layered onto 4 ml of cold 6.8% metrizamide (Fluka) in HBSS-25 mM HEPES (pH7.4) in a 12 ml-siliconized conical glass tube. The tube was centrifuged at 400 g for 15 min at 4° C. and the intermediate layer (0.5 ml) was collected into another siliconized tube containing 6.5 ml of cold culture medium (a mixture of glucose (4 g/l)-supplemented Leibovitz's L-15 medium (Gibco), 0.15 M sodium bicarbonate, heat-inactivated and filtered horse serum and penicillin G (10^5 units/ml) at the ratio of 75:15:10:0.1, freshly prepared and buffered with 5% CO2.) After centrifugation at 100×g for 7 min at 4° C., the supernatant was removed and the cells were gently resuspended in culture medium and plated in Greiner 4-well culture dishes (well diameter, 10 mm; C. A. Greiner und Sohne GmbH, Nurtingen, West Germany) at 1000-2000 cells/well. The dishes had been precoated with poly-DL-ornithine (Sigma, 0.5 mg in 0.15 M sodium borate buffer (pH 8.3) overnight at 4° C., rinsed twice with phosphate-buffered saline (PBS) and subsequently coated with laminin (Gibco; 10 μg/ml in the serum-depleted culture medium) and placed in a 5% CO2-incubator until cell plating (5-6 hrs). Cells were incubated at 37° C. in a humidified 5% CO2- and 95% air-incubator. Samples were added one hr after plating and the culture medium changed after 24 hrs and 72 hrs. The initial cell numbers were counted 3 hrs after plating.
# In some experiments motor neurons were retrogradely labeled with a fluorescent dye in vivo before cell preparation (U. Dohrman et al., 1986, Dev. Biol. 118:209-221) to identify the motor neuron cell population. A small hole was made in the shell of eggs which had been incubated for 5 days. Small pieces of rhodamine isothiocyanate crystals (Sigma) were inserted at two or three places into each hind limb thigh and the egg hole was sealed with a cellophane tape. The eggs were incubated for another 24 hrs. Some of the operated embryos were then processed for frozen sections after formaldehyde fixation. […] The other embryos were used for cell preparation using the method described above (18.1.1). After 5 hrs in culture cells were rinsed with warm HBSS, fixed with 4% formaldehyde in PBS at room temperature for 20 min, rinsed with PBS and then mounted in glycerol-PBS (1:1) with glass coverslips. Of the total cells approximately 83% were labeled and identified as motorneurons (FIG. 42.) Most of these labeled motorneurons were large cells and the rest were intermediate-size cells. No small cells were labeled. On the other hand, in experiments in which cells were not labeled with a fluorescent dye about 70% of the total cells were large phase-bright cells with round cell somas, about 20% were intermediate-size neurons (most of them may be motorneurons) and about 10% were small immature neurons (they have neuron-like processes with growth cones but have phase-dark semi-flat cell somas). Non-neuronal cells were either not present or accounted for less than 2%. Taken together, one may conclude that at least 83% of the cells are motorneurons while the remainder consists of non-labeled motorneurons, a small number of unidentified intermediate-size neurons and about 10% immature small neurons. […]
# [2] = test system: E8 chick ciliary ganglion neurons; test: Survival of dissociated E8 chick ciliary ganglion neurons; format: cell-based; details: cultured two days with a range of peptide concentrations
# Text: Ciliary neurotrophic factor activity may be evaluated using any CNTF-sensitive in vivo or in vitro system known in the art. For example, and not by way of limitation, in vitro systems have been developed which measure CNTF activity by quantitating 24-hour survival of embryonic (E8) chick ciliary ganglion (CG) neurons in monolayer cultures.
# For example, ciliary ganglia may be collected from E8 chick embryos, dissociated (yielding approximately 20,000 cells per ganglion) and then diluted in HEBM medium containing 20 percent horse serum as described in Varon et al. (1979, Brain Res. 173:29-45). […] Culture plates may then be maintained at 37° C. in 5% CO2 for 24 hours, after which the cultures may be fixed by the addition of 200 μl 2 per cent glutaraldehyde in HEBM medium, and the number of surviving neurons may be determined visually by direct count under phase contrast microscopy. […]
# Biological activity of recombinant CNTF was assayed on explants of chick embryo dorsal root ganglia (DRG) and dissociated cultures of ciliary ganglion (CG) neurons as described in Lindsay and Rohrer (1985, Devel. Biol 112:30-48). […] In explant cultures CNTF activity was determined by assessing the extent of fiber outgrowth in treated cultures compared to controls. Fiber outgrowth was scored on a scale of 0 to 5+, by comparing cultures to photographs of a dose-response of explanted DRG and NGF. […]
Compound,concentration at which the highest survival effect was obtained ([1]; 3 days in culture) [ng/mL],highest survival effect of the concentration-response curve ([1]; 3 days in culture) [%],Survival [1],survival effect on motoneurons [1],also measured
"N[C@@H](CCC(=O)O)C(=O)O [glutamate, reference compound]",,,,,cell survival after glutamate (hippocampal neurons): approximately 10%
"Acidic FGF: acidic FGF (human, rec.)",300,18,"± (about 15-20% (statistically significant from each blank control, p < 0.01))",,"concentration at which the highest survival effect was obtained, in the presence of 1 μg/ml heparin ([1]; 3 days in culture): 100 ng/mL; highest survival effect of the concentration-response curve, in the presence of 1 μg/ml heparin ([1]; 3 days in culture, heparin only first 24 hr): 35%"
"Basic FGF: basic fibroblast growth factor (human, rec.)",30,51,+ + (about 35-55%),,"Motoneuron survival (%) [1]: 51.9 ± 3.6%; EC50 ([1]; motorneuron survival, 3 days in culture): 0.26 ng/mL"
"IGF-I: insulin-like growth factor I (human, rec.)",100,15,"± (about 15-20% (statistically significant from each blank control, p < 0.01))",,Motoneuron survival (%) [1]: 14.5 ± 0.5 %
"IGF-II: insulin-like growth factor II (human, rec.)",300,15,"± (about 15-20% (statistically significant from each blank control, p < 0.01))",,
"IL-1β: IL-1β (human, rec.)",,,−,no discernable effect,
Insulin: Insulin (bovine),25000,16,"± (about 15-20% (statistically significant from each blank control, p < 0.01))",,
MVLLEQKIPENEADGMPATVGDGGLFEK (MVLLEQKIPENEADGMPATVGDGGLFEK) [28 amino acid synthetic peptide fragment],,,,,neurotrophic activity (neuronal survival) [2]: A dose-response relationship was observed
PDGF,,,−,no discernable effect,
"TGFa: TGFa (human, rec.)",,,−,no discernable effect,
"TGFβ1: TGFβ1 (porcine, rec.)",,,−,no discernable effect,
Transferrin: Transferrin (human),,,−,,
